Results reported in patent US20250195521A1 (Revolution Medicines, Inc., priority 2020, published 2025).
pEC50, pIC50: −log10 of the molar value. Values joined by “and” are separate entries in the source; they are usually repeats but may differ in a detail not shown here. Identical values can stand only once. Like-named read-outs stand apart in the source and are kept apart here.

Assays:
[1] = molecular target: K-Ras G12C(GMP-PNP) binding to BRAF RBD (Homo sapiens (Human), UniProt P01116+P62937, G12C); assay: Disruption of BRAF RBD interaction with K-Ras (FRET / MOA assay), K-Ras G12C; format: biochemical
Source text: Note—The following protocol describes a procedure for monitoring disruption of K-Ras G12C(GMP-PNP) binding to BRAF^RBD by a compound of the invention. This protocol may also be executed substituting other Ras proteins or nucleotides.
The purpose of this biochemical assay was to measure the ability of test compounds to facilitate ternary complex formation between a nucleotide-loaded K-Ras isoform and Cyclophilin A; the resulting ternary complex disrupts binding to a BRAF^RBD construct, inhibiting K-Ras signaling through a RAF effector. Data is reported as IC50 values.
Compound was present in plate wells as a 10-point 3-fold dilution series starting at a final concentration of 30 μM. After incubation at 25° C. for 3 hours, a mixture of Anti-His Eu—W1024 and anti-GST allophycocyanin was then added to assay sample wells at final concentrations of 10 nM and 50 nM, respectively, and the reaction incubated for an additional 1.5 hours. […] Compounds that facilitate disruption of a K-Ras: RAF complex were identified as those eliciting a decrease in the TR-FRET ratio relative to DMSO control wells.

NCI-H358 (K-Ras G12C) = assay: CellTiter-Glo cell viability assay, NCI-H358; format: cell-based, human; details: Homo sapiens, NCI-H358, 120 h; for pIC50: 5-day treatment, read-out: H358 Cell Viability assay data (K-Ras G12C, IC50)
Summary of the method: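 Viability read-out was luminescent (CellTiter-Glo) on day 5 of compound exposure in K-Ras G12C NCI-H358 cells. Values were expressed as percent of mean DMSO signal and fitted with a four-parameter logistic curve.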

[2] = system: K-Ras G12C (NCI-H358 cells); assay: Potency assay: pERK in NCI-H358 cells; format: cell-based, human; details: read-out: pERK EC50 (H358 KRAS G12C)
Summary of the method: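 Cells plated the day before were exposed for 4 h at 37° C, 5% CO2 to a 10-point, 3-fold DMSO dilution series (10 mM top stock), in duplicate. Phospho-ERK was read by AlphaLISA SureFire Ultra or by In-Cell Western with DRAQ5 DNA stain, and IC50 came from a 4-parameter sigmoidal fit.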

[3] = system: Capan-1 cells (K-Ras G12V); assay: CellTiter-Glo cell viability, Capan-1; format: cell-based, human; details: Homo sapiens, CAPAN-1, 120 h, K-Ras G12V, 5-day treatment; read-out: Capan-1 Cell Viability IC50
Summary of the method: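 Viability read by luminescence on day 5 after direct compound addition to cells, following ~30 min room-temperature equilibration. Values expressed as percent of mean DMSO signal, curves fitted with a four-parameter logistic model.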

KRAS G12D = KRAS G12D (Homo sapiens (Human), UniProt P01116+P62937, G12D); assay: Ras-Raf disruption/FRET/MOA assay (BRAF RBD, Cyclophilin A); format: biochemical; details: read-out: KRAS G12D FRET IC50
Summary of the method: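 25 μM tagless Cyclophilin A, 12.5 nM His6-Ras-GMPPNP and 50 nM GST-BRAF RBD in HEPES pH 7.3 buffer with 5 mM MgCl2, with compound (10-point 3-fold series from 30 μM final) for 3 h at 25 °C. Anti-His Eu and anti-GST APC then added for 1.5 h. IC50 from TR-FRET ratio decrease versus DMSO.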

[4] = Homo sapiens, NCI-H358 cells, 4 hours

Chain of K-Ras G12C(GMP-PNP) binding to BRAF RBD (P01116 other isoform, or with tags, fused parts or gaps G12C): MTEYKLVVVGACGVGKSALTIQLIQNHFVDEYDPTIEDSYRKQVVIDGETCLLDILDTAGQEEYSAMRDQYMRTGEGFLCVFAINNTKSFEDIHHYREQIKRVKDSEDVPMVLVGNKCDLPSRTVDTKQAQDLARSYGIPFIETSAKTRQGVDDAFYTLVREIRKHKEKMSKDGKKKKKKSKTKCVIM
Chain of K-Ras G12C(GMP-PNP) binding to BRAF RBD (P62937 whole entry): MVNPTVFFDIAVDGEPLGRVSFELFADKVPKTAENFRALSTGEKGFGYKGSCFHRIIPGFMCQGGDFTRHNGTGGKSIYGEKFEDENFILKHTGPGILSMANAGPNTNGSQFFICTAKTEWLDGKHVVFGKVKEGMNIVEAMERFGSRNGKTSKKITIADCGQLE
Chain of KRAS G12D (P01116 other isoform, or with tags, fused parts or gaps G12D): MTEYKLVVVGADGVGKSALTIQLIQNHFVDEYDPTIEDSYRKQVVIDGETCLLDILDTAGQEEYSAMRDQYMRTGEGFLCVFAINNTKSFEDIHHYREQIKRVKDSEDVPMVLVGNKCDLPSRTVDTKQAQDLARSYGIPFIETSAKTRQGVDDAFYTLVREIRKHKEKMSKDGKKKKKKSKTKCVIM
Chain of KRAS G12D (P62937 whole entry): as the sequence (P62937 whole entry) above

| SMILES | pIC50 ([1]; read-out: KRAS G12C FRET IC50) | pIC50 (NCI-H358 (K-Ras G12C)) | further results |
| --- | --- | --- | --- |
| CCn1c(-c2cccnc2[C@H](C)OC)c2c3cc(ccc31)-c1csc(n1)C[C@H](NC(=O)[C@H](C(C)C)N(C)C(=O)N1CC([C@@H](C)CO)C1)C(=O)N1CCC[C@H](N1)C(=O)OCC(C)(C)C2 (single isomer, unassigned) [Compound A487] | 6.00 to 7.00 | 7.00 to 8.00 |  |
| CCn1c(-c2cccnc2[C@H](C)OC)c2c3cc(ccc31)-c1cc(O)cc(c1)C[C@H](NC(=O)[C@H](C(C)C)N(C)C(=O)[C@H]1CCN(C)C1)C(=O)N1CCC[C@H](N1)C(=O)OCC(C)(C)C2 [Compound A100] | 5.00 to 6.00 |  |  |
| CCn1c(-c2cccnc2[C@H](C)OC)c2c3cc(ccc31)-c1csc(n1)C[C@H](NC(=O)[C@H](C(C)C)N(C)C(=O)[C@H]1CCN(C(=O)CN)C1)C(=O)N1CCC[C@H](N1)C(=O)OCC(C)(C)C2 [Compound A106] | 5.00 to 6.00 |  |  |
| CCn1c(-c2cccnc2[C@H](C)OC)c2c3cc(ccc31)-c1cccc(c1)C[C@H](NC(=O)[C@H](C(C)C)N(C)C(=O)[C@H]1CCN(C(=O)C(C)(C)N(C)C)C1)C(=O)N1CCC[C@H](N1)C(=O)OCC(C)(C)C2 [Compound A112] | 6.00 to 7.00 and > 8.00 |  | pEC50 [2, 4]: > 5.30 |
| CCn1c(-c2cccnc2[C@H](C)OC)c2c3cc(ccc31)-c1cc(O)cc(c1)C[C@H](NC(=O)[C@H](C(C)C)N(C)C(=O)[C@H]1CCN(C(=O)OC(C)C)C1)C(=O)N1CCC[C@H](N1)C(=O)OCC(C)(C)C2 [Compound A117] | 6.00 to 7.00 | 6.00 to 7.00 | pEC50 [2, 4]: > 5.30 |
| CCn1c(-c2cccnc2[C@H](C)OC)c2c3cc(ccc31)-c1cc(O)cc(c1)C[C@H](NC(=O)[C@H](C(C)C)N(C)C(=O)C1CCN3CCOCC13)C(=O)N1CCC[C@H](N1)C(=O)OCC(C)(C)C2 (stereo partly shown) [Compound A123] |  |  | pEC50 [2, 4]: > 5.30; pIC50 ([1]; KRAS G12C FRET IC50): 7.00 to 8.00 |
| CCn1c(-c2cccnc2[C@H](C)OC)c2c3cc(ccc31)-c1csc(n1)C[C@H](NC(=O)[C@H](C(C)C)N(C)C(=O)N(C)C)C(=O)N1CCC[C@H](N1)C(=O)OCC(C)(C)C2 [Compound A136] | 5.00 to 6.00 |  |  |
| CCn1c(-c2cccnc2[C@H](C)OC)c2c3cc(ccc31)-c1csc(n1)C[C@H](NC(=O)[C@H](C(C)C)N(C)C(=O)[C@@H]1OCC[C@@H]1C)C(=O)N1CCC[C@H](N1)C(=O)OCC(C)(C)C2 [Compound A143] | 6.00 to 7.00 | 7.00 to 8.00 |  |
| CCn1c(-c2cccnc2[C@H](C)OC)c2c3cc(ccc31)-c1cc(O)cc(c1)C[C@H](NC(=O)[C@H](C(C)C)N(C)C(=O)[C@H]1C[C@H]1C)C(=O)N1CCC[C@H](N1)C(=O)OCC(C)(C)C2 [Compound A146] | 6.00 to 7.00 | 6.00 to 7.00 |  |
| CCn1c(-c2cccnc2[C@H](C)OC)c2c3cc(ccc31)-c1nc(cs1)C[C@H](NC(=O)[C@H](C(C)C)N(C)C(C)=O)C(=O)N1CCC[C@H](N1)C(=O)OCC(C)(C)C2 [Compound A152] | 7.00 to 8.00 | 7.00 to 8.00 | pEC50 [2, 4]: > 5.30 |
| CCn1c(-c2cccnc2[C@H](C)OC)c2c3cc(ccc31)-c1cc(O)cc(c1)C[C@H](NC(=O)[C@H](C(C)C)N(C)C(=O)C1(N)CC1)C(=O)N1CCC[C@H](N1)C(=O)OCC(C)(C)C2 [Compound A168] | 6.00 to 7.00 |  | pEC50 ([2]; Homo sapiens, NCI-H358, 4 h): > 5.30; IC50 (NCI-H358 (K-Ras G12C); read-out: H358 Cell Viability assay data (K-Ras G12C, IC50, uM), 5-day treatment): 0.01 to 0.1 µM |
| CCn1c(-c2cccnc2[C@H](C)OC)c2c3cc(ccc31)-c1cc(O)cc(c1)C[C@H](NC(=O)[C@H](C(C)C)N(C)C(=O)N1CC(N(C)C)C1)C(=O)N1CCC[C@H](N1)C(=O)OCC(C)(C)C2 [Compound A171] | 5.00 to 6.00 | 6.00 to 7.00 | pEC50 [2, 4]: > 5.30 |
| CCn1c(-c2cccnc2[C@H](C)OC)c2c3cc(ccc31)-c1cc(O)cc(c1)C[C@H](NC(=O)[C@@H](NC(C)=O)C(C)(C)OC)C(=O)N1CCC[C@H](N1)C(=O)OCC(C)(C)C2 [Compound A172] | 7.00 to 8.00 | 7.00 to 8.00 | pEC50 [2, 4]: > 5.30 |
| CCn1c(-c2cccnc2[C@H](C)OC)c2c3cc(ccc31)-c1cc(O)cc(c1)C[C@H](NC(=O)[C@H](C(C)C)N(C)C(=O)O[C@H]1CCOC1)C(=O)N1CCC[C@H](N1)C(=O)OCC(C)(C)C2 [Compound A209] | 7.00 to 8.00 and > 8.00 |  |  |
| C=CC(=O)N1CC[C@]2(CCCN([C@H](C(=O)N[C@H]3Cc4cc(O)cc(c4)-c4ccc5c(c4)c(c(-c4ccccc4CCOC)n5CC)CC(C)(C)COC(=O)[C@@H]4CCCN(N4)C3=O)C(C)C)C2)C1 [Compound A217] | 6.00 to 7.00 and < 5.00 |  | pEC50 [2, 4]: > 5.30 |
| CCn1c(-c2cccnc2[C@H](C)OC)c2c3cc(ccc31)-c1cc(O)cc(c1)C[C@H](NC(=O)[C@H](C(C)C)N(C)C(=O)C1NCCC13CC3)C(=O)N1CCC[C@H](N1)C(=O)OCC(C)(C)C2 (stereo partly shown) [Compound A228] | 5.00 to 6.00 | < 5.00 |  |
| CCn1c(-c2cccnc2[C@H](C)OC)c2c3cc(ccc31)-c1csc(n1)C[C@H](NC(=O)[C@H](C(C)C)N(C)C(=O)[C@H]1CCCO1)C(=O)N1CCC[C@H](N1)C(=O)OCC(C)(C)C2 [Compound A238] | 7.00 to 8.00 | 7.00 to 8.00 |  |
| CCn1c(-c2cccnc2[C@H](C)OC)c2c3cc(ccc31)-c1csc(n1)C[C@H](NC(=O)[C@H](C(C)C)N(C)C(=O)N1CCC13CN(C)C3)C(=O)N1CCC[C@H](N1)C(=O)OCC(C)(C)C2 [Compound A274] | 5.00 to 6.00 | 6.00 to 7.00 |  |
| CCn1c(-c2cccnc2[C@H](C)OC)c2c3cc(ccc31)-c1csc(n1)C[C@H](NC(=O)[C@H](C(C)C)N(C)C(=O)N1C[C@H]3CN(C)C[C@H]3C1)C(=O)N1CCC[C@H](N1)C(=O)OCC(C)(C)C2 [Compound A313] | 5.00 to 6.00 | < 5.00 |  |
| CCn1c(-c2cccnc2[C@H](C)OC)c2c3cc(ccc31)-c1cc(O)cc(c1)C[C@H](NC(=O)[C@H](C(C)C)N(C)C(=O)[C@H]1CCN(C(=O)[C@H]3CCCN3)C1)C(=O)N1CCC[C@H](N1)C(=O)OCC(C)(C)C2 [Compound A378] | 6.00 to 7.00 |  | pIC50 [3]: 5.00 to 6.00 |
| CCn1c(-c2cccnc2[C@H](C)OC)c2c3cc(ccc31)-c1cc(C#N)cc(c1)C[C@H](NC(=O)[C@H](C(C)C)N(C)C(C)=O)C(=O)N1CCC[C@H](N1)C(=O)OCC(C)(C)C2 [Compound A430] | 6.00 to 7.00 | 7.00 to 8.00 |  |
| CCn1c(-c2cccnc2[C@H](C)OC)c2c3cc(ccc31)C1=C[C@@H](O)CN(C1)C[C@H](NC(=O)[C@H]1[C@H](C)[C@@H]1C)C(=O)N1CCC[C@H](N1)C(=O)OCC(C)(C)C2 [Compound A441, (1R,2R,3S)—N-((2^3S,6^3S,4S)-1^1-ethyl-2^3-hydroxy-1^2-(2-((S)-1-methoxyethyl)pyridin-3-yl)-10,10-dimethyl-5,7-dioxo-2^1,2^2,2^3,2^6,6^1,6^2,6^3,6^4,6^5,6^6-decahydro-1^1H-8-oxa-1 (5,3)-indola-6 (1,3)-pyridazina-2 (5,1)-pyridinacycloundecaphane-4-yl)-2,3-dimethylcyclopropane-1-carboxamide] | 5.00 to 6.00 |  | pEC50 ([2]; NCI-H358 cells, 4 hours): > 5.30; pIC50 (KRAS G12D): 6.00 to 7.00 |
| CCn1c(-c2cccnc2[C@H](C)OC)c2c3cc(ccc31)-c1csc(n1)C[C@H](NC(=O)[C@H](C(C)C)N(C)C(=O)N1CC3(CC(N(C)CCO)C3)C1)C(=O)N1CCC[C@H](N1)C(=O)OCC(C)(C)C2 [Compound A467] | 5.00 to 6.00 | 7.00 to 8.00 |  |
| CCn1c(-c2cc(N3CCN(C)CC3)cnc2[C@H](C)OC)c2c3cc(ccc31)-c1cccc(c1)C[C@H](NC(=O)[C@H](C(C)C)N(C)C(=O)[C@@H]1OCC[C@@H]1c1ccccc1)C(=O)N1CCC[C@H](N1)C(=O)OCC(C)(C)C2 [Compound A562] | 6.00 to 7.00 | 6.00 to 7.00 |  |
| CCn1c(-c2cccnc2[C@H](C)OC)c2c3cc(ccc31)-c1csc(n1)C[C@H](NC(=O)[C@H](C(C)C)N(C)C(=O)N1CC(C3CN(C)C3)C1)C(=O)N1CCC[C@H](N1)C(=O)OCC(C)(C)C2 [Compound A608] | 6.00 to 7.00 | 7.00 to 8.00 |  |
